Earlier results on one molecule are cited in paper PMC8201753 (ACS Medicinal Chemistry Letters, 2021).

This data set deals with ERα-dependent cells. The note with it: cited from earlier work.

Turning to `C=CC(C)(C)OC[C@H]1O[C@H](O[C@@H]2C3=C([C@H](C)COC(C)=O)C[C@H](O)[C@]3(C)/C=C3/[C@@H](COC)CC[C@H]3[C@@H](C)[C@H]2O)[C@H](O)[C@@H](OC(C)=O)[C@@H]1O` [FC-A, fusicoccin-A], the “Growth of ERα-dependent cells” value is on record as “blocks growth”.
